Assay results published in patent publication US20050008607A1, “Composition containing a carbonyl amine” (priority 2003, published 2005).
Entries after “also recorded” stand apart in the source; their conditions may differ.

Columns and labels:
[1] = system: human striated muscle cells innervated with explants of spinal cord and of spinal ganglia from rat embryos; format: cell-based
wrinkles = conditions: in vivo; cited from earlier work

For `CCCCCC(=O)CCN(CC)CCCc1ccccc1` [Compound (4)], the “contractions of three muscle fibres” value ([1]; 100 μM, incubated for 60 seconds, contractions counted over 30 seconds) was “blocks the contractions”.
In the case of `CN1C(=O)CN=C(c2ccccc2)c2cc(Cl)ccc21` [diazepam, reference compound], the muscle fibre contractions [1] is listed as “inhibited muscle fibre contractions” and the anti-wrinkle activity (wrinkles) is listed as “demonstrated in vivo”.
For botulinum toxin, the “blocking effect on contractions” value [1] was “blocking effect which is much weaker; also recorded: complete”, the “blocking of the contractions” value [1] was “completely blocks the contractions” and the “frequency of the contractions” value [1] was “greatly decreases the frequency of the contractions”.
